{"source": "patent US4053478A", "about": "“2,5-Di-substituted 4-oxazolealkanoic acids and esters” (Yoshitomi Pharmaceutical Industries, Ltd., priority 1974, dated 1977)", "key": {"serum cholesterol level [1]": {"system": "serum cholesterol level", "assay": "Hypolipidemic action: Triton hyperlipidemia in male mice (Table 3)", "assay_type": "in vivo, dd-strain male mice", "conditions": "intraperitoneal, 18 hours after Triton", "protocol": "iii. Triton hyperlipidemia in male mice (Table 3) Each group was composed of eight dd-strain male mice weighing 20-25 g. Immediately after intraperitoneal administration of the test compound to the animals, Triton WR-1339 was intraveniously given. Eighteen hours after Triton administration, the serum cholesterol level was measured and compared with that of the control group treated in the same way."}, "[2]": {"assay": "Acute toxicity, mouse (Table 5)", "conditions": "in vivo, oral, lethality within two days, read-out: LD50 per os, Mouse", "protocol": "(§1) The test compound was orally administered to groups each of 5 male mice and rats respectively. The LD50 was calculated from the lethal rate (50%) within two days after administration of the test compound."}, "[3]": {"assay": "Acute toxicity, rat (Table 5)", "conditions": "in vivo, oral, lethality within two days, read-out: LD50 per os, Rat", "protocol": "as §1"}, "[4]": {"system": "bleeding time induced by platelet thrombi", "assay": "Anti-thrombotic action: bleeding time induced by platelet thrombi, tail vein puncture (Table 4)", "assay_type": "in vivo", "conditions": "oral, one hour after administration, male mice", "protocol": "The bleeding time induced by platelet thrombi was compared with that of the control group, and the rate of prolongation was calculated as an index of anti-thrombotic activity."}, "[5]": {"system": "serum cholesterol and triglyceride levels", "assay": "Hypolipidemic action: male rats with normal serum lipid (Table 1)", "assay_type": "in vivo, Wistar strain male rats", "conditions": "100 mg/kg/day, oral (gastric tube), 5 days, vs control", "protocol": "i. Male rats with normal serum lipid (Table 1)\nEach test group was composed of more than 5 rats. The test compound was orally given by a gastric tube. Serum cholesterol and triglyceride levels were measured by the standard methods using an autoanalyzer (Technicon Inc.). The levels in the control (placebo) group were considered as 100% and the reduction (%) in the test group was calculated."}, "serum cholesterol level [6]": {"system": "serum cholesterol level", "assay": "Hypolipidemic action: dietary hyperlipidemia in male mice (Table 2)", "assay_type": "in vivo, dd-strain male mice", "conditions": "5 days", "protocol": "ii. Dietary hyperlipidemia in male mice (Table 2)\ndd-Strain male mice weighing 20-25 g. were used. Each group was composed of 8 mice. Animals were fed with NMF food (Oriental Yeast Co., Tokyo) containing 1% of cholesterol, 0.2% of cholic acid and 5% of olive oil, and the serum cholesterol level was measured by the use of an autoanalyzer after 5 days administration of the test compound. The levels in the test group was compared with that in the control group given the same diet."}}}
{"smiles": "CCOC(=O)Cc1nc(-c2ccc(Cl)c(Cl)c2)oc1OCC", "note": "[C, ethyl 2-(3,4-dichlorophenyl)-5-ethoxy-4-oxazoleacetate]", "values": [{"measurement": "Lowering Rate (%) of Serum Cholesterol Level", "setting": "serum cholesterol level [1]; 25 mg/kg/day", "value": 18, "unit": "%"}, {"measurement": "Lowering Rate (%) of Serum Cholesterol Level", "setting": "serum cholesterol level [1]; 100 mg/kg/day", "value": 35, "unit": "%"}, {"measurement": "LD50 at 48 h", "setting": "[2]", "value": 2000, "unit": "mg/kg"}, {"measurement": "LD50 at 48 h", "setting": "[3]", "value": "> 4000", "unit": "mg/kg"}]}
{"smiles": "CCOc1oc(-c2ccncc2)nc1CCC(=O)O", "note": "[D, 3-[2-(4-pyridyl)-5-ethoxy-4-oxazole]propionic acid]", "values": [{"measurement": "Prolongation Rate (%) of the Bleeding Time", "setting": "[4]; 12.5 mg/kg/day", "value": 107, "unit": "%"}, {"measurement": "Prolongation Rate (%) of the Bleeding Time", "setting": "[4]; 25 mg/kg/day", "value": 209, "unit": "%"}, {"measurement": "Prolongation Rate (%) of the Bleeding Time", "setting": "[4]; 50 mg/kg/day", "value": 321, "unit": "%"}, {"measurement": "Prolongation Rate (%) of the Bleeding Time", "setting": "[4]; 100 mg/kg/day", "value": 439, "unit": "%"}, {"measurement": "LD50 at 48 h", "setting": "[2]", "value": "> 2000", "unit": "mg/kg"}, {"measurement": "LD50 at 48 h", "setting": "[3]", "value": "> 2000", "unit": "mg/kg"}]}
{"smiles": "CC(=O)Oc1ccccc1C(=O)O", "note": "[Acetylsalicylic Acid, reference compound]", "values": [{"measurement": "Prolongation Rate (%) of the Bleeding Time", "setting": "[4]; 12.5 mg/kg/day", "value": 22, "unit": "%"}, {"measurement": "Prolongation Rate (%) of the Bleeding Time", "setting": "[4]; 25 mg/kg/day", "value": 65, "unit": "%"}, {"measurement": "Prolongation Rate (%) of the Bleeding Time", "setting": "[4]; 50 mg/kg/day", "value": 268, "unit": "%"}]}
{"smiles": "CCOC(=O)C(C)(C)Oc1ccc(Cl)cc1", "note": "[Clofibrate, reference compound]", "values": [{"measurement": "Lowering Rate (%) of Serum Cholesterol Level", "setting": "[5]", "value": 31, "unit": "%"}, {"measurement": "Lowering Rate (%) of Serum Triglyceride Level", "setting": "[5]", "value": 35, "unit": "%"}, {"measurement": "Lowering Rate (%) of Serum Cholesterol Level", "setting": "serum cholesterol level [6]; 50 mg/kg/day", "value": 0, "unit": "%"}, {"measurement": "Lowering Rate (%) of Serum Cholesterol Level", "setting": "serum cholesterol level [6]; 100 mg/kg/day", "value": 16, "unit": "%"}, {"measurement": "Lowering Rate (%) of Serum Cholesterol Level", "setting": "serum cholesterol level [1]; 100 mg/kg/day", "value": 10, "unit": "%"}, {"measurement": "Prolongation Rate (%) of the Bleeding Time", "setting": "[4]; 100 mg/kg/day", "value": 38, "unit": "%"}, {"measurement": "LD50 at 48 h", "setting": "[2]", "value": 1500, "unit": "mg/kg"}, {"measurement": "LD50 at 48 h", "setting": "[3]", "value": 2300, "unit": "mg/kg"}]}
{"smiles": "CCOc1oc(-c2ccc(Cl)cc2)nc1CC(=O)OCc1cccnc1", "note": "[B, 3-pyridylmethyl 2-p-chlorophenyl-5-ethoxy-4-oxazoleacetate]", "values": [{"measurement": "Lowering Rate (%) of Serum Cholesterol Level", "setting": "[5]", "value": 22, "unit": "%"}, {"measurement": "Lowering Rate (%) of Serum Triglyceride Level", "setting": "[5]", "value": 41, "unit": "%"}, {"measurement": "Lowering Rate (%) of Serum Cholesterol Level", "setting": "serum cholesterol level [6]; 100 mg/kg/day", "value": 43, "unit": "%"}, {"measurement": "LD50 at 48 h", "setting": "[2]", "value": "> 4000", "unit": "mg/kg"}, {"measurement": "LD50 at 48 h", "setting": "[3]", "value": "> 4000", "unit": "mg/kg"}]}
{"smiles": "CCOC(=O)Cc1nc(-c2ccc(Cl)cc2)oc1OCC", "note": "[Compound A, ethyl 2-p-chlorophenyl-5-ethoxy-4-oxazoleacetate]", "values": [{"measurement": "Lowering Rate (%) of Serum Cholesterol Level", "setting": "[5]", "value": 25, "unit": "%"}, {"measurement": "Lowering Rate (%) of Serum Triglyceride Level", "setting": "[5]", "value": 45, "unit": "%"}, {"measurement": "Lowering Rate (%) of Serum Cholesterol Level", "setting": "serum cholesterol level [6]; 50 mg/kg/day", "value": 21, "unit": "%"}, {"measurement": "Lowering Rate (%) of Serum Cholesterol Level", "setting": "serum cholesterol level [6]; 100 mg/kg/day", "value": 41, "unit": "%"}, {"measurement": "Lowering Rate (%) of Serum Cholesterol Level", "setting": "serum cholesterol level [1]; 50 mg/kg/day", "value": 26, "unit": "%"}, {"measurement": "Lowering Rate (%) of Serum Cholesterol Level", "setting": "serum cholesterol level [1]; 100 mg/kg/day", "value": 32, "unit": "%"}, {"measurement": "LD50 at 48 h", "setting": "[2]", "value": 4000, "unit": "mg/kg"}, {"measurement": "LD50 at 48 h", "setting": "[3]", "value": "> 4000", "unit": "mg/kg"}]}
